Source: patent publication US20260376293A1, “METHODS FOR STUDYING GPR158 PHARMACOLOGY AND IDENTIFICATION OF ITS LIGANDS” (UNIVERSITY OF FLORIDA RESEARCH FOUNDATION, INCORPORATED, priority 2022, published 2026)

Molecular target: T1, GPR158 (Homo sapiens, UniProt Q5T848)
T1 sequence (Q5T848 24-1215): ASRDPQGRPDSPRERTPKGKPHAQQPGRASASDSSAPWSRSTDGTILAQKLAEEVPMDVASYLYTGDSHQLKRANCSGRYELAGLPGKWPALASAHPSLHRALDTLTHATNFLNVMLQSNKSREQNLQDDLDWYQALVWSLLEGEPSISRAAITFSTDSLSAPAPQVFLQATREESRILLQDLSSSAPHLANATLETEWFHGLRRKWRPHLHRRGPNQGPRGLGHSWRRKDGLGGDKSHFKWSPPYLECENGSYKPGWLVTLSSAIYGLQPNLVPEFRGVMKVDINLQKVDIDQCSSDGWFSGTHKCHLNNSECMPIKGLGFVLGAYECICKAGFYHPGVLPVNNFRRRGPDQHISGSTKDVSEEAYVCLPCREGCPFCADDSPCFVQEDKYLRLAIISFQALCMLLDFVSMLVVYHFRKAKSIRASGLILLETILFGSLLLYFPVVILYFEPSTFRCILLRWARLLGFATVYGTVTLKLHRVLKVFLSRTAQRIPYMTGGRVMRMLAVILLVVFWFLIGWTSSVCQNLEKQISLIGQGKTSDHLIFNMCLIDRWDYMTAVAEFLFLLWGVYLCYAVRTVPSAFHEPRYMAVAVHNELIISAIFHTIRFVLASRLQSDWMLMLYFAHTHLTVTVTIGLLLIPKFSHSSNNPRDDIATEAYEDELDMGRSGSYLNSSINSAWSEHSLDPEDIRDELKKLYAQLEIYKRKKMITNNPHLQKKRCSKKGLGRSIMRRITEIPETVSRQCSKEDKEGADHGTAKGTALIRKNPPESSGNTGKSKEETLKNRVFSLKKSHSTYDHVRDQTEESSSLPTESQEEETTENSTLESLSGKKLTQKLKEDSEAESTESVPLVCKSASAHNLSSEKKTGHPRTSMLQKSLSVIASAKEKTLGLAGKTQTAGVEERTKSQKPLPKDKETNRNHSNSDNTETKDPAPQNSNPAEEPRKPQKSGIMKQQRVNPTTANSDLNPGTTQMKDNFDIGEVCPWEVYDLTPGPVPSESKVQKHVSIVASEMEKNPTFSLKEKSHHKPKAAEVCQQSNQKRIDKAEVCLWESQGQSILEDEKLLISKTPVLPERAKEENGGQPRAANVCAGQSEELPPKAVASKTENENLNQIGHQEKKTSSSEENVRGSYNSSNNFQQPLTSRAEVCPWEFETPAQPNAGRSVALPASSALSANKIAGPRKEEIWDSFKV
Experiment: BRET G protein activation assay
Format: cell-based
Design: expressed in transfected cells; host or cells: HEK293FT
Conditions: panel of Gα subunits; 0.1 mM; HEK293 cells
Experimental: FIGS. 5A-5I. Lack of the effects of glycine or taurine on GPR158 coupling to G proteins. A) Schematic of the assay design to monitor GPCR induced G protein activation. B-I) Representative traces evaluating G protein activation in BRET-based assay. The assay measures generation of the BRET signal between Gβγ and its reporter masGRK3CT-NLuc co-transfected into HEK293 cells with indicated Gα. The reaction is initiated by the addition of glycine (0.1 mM, square symbols) or taurine (0.1 mM triangle symbols) to GPR158 expressing cells. Control reactions conducted in parallel utilized canonical receptors and their ligands at 0.1 mM. The arrow indicates the injection time point of the ligand.
The inventors further tested whether glycine or taurine could induce GPR158 to activate G proteins as canonical GPCRs do. In these experiments, the inventors used a reverse strategy where the inventors monitored generation of the BRET signal in the same assay (FIG. 5A).
Measurements of BRET between Venus-Gβ1γ2 and masGRK3ct-Nluc were performed to monitor the release of free Gβγ dimers after activation of heterotrimers containing Gα subunits in living cells (described in detail in Masuho et al., 2015 (40)). […] An empty vector pcDNA3.1(±) was used in order to normalize the quantity of transfected DNA. […]

## NCCS(=O)(=O)O [taurine, 2-aminoethanesulfonic acid]
  G protein activation via GPR158: no significant signal generation

## NCC(=O)O [glycine]
  G protein activation via GPR158: no significant signal generation
